Reference: article PMC4641920, “Structural Determinants for Substrate Binding and Catalysis in Triphosphate Tunnel Metalloenzymes” (The Journal of Biological Chemistry, 2015)

How the values were obtained:
Vtc4p = target: T1, Vtc4p (Saccharomyces cerevisiae, UniProt P47075); test: polyP synthesis, urea PAGE with DAPI stain; assay type: biochemical; details: 10 mM ATP, 1 mM MnCl2, pH 8.3, room temperature overnight
T1 construct: gene VTC4; probably the cytoplasmic tunnel domain of earlier work

mouse ThTPase [1] = target: T2, mouse ThTPase (Mus musculus, UniProt Q8JZL3); test: X-ray crystal structure of product complex (soak); assay type: binding; details: pH 9.0, 0.2 M MgCl2 in crystallization buffer
T2 construct: gene Thtpa; full-length, codon-optimized synthetic gene; pMH-HT, His6 tag cleaved by TEV as for AtTTM3; expressed in E. coli
T2 sequence (Q8JZL3 1-224): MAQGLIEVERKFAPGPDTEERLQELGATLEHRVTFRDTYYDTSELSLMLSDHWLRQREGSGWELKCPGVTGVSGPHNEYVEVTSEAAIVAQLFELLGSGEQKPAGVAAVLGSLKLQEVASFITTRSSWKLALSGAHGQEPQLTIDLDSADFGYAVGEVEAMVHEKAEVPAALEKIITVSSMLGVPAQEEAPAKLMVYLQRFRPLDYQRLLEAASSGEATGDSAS

mouse ThTPase [2] = target: T2, mouse ThTPase; test: X-ray crystal structure of complex (soak); assay type: binding; details: 10 mM MgCl2; low pH where activity is minimal (text: pH 6; methods: buffer pH 6.8); tunnel active site
ygiF = target: T3, ygiF (Escherichia coli, UniProt P30871); test: X-ray crystal structure of complex (soak); assay type: binding; details: MgCl2 (5a60) or MnCl2 (5a61), 5 mM; tunnel active site
T3 construct: full-length, tunnel domain plus CHAD domain; pMH-HT, His6 tag cleaved by TEV as for AtTTM3; expressed in E. coli
T3 sequence (P30871 whole entry, the tested form may be a part): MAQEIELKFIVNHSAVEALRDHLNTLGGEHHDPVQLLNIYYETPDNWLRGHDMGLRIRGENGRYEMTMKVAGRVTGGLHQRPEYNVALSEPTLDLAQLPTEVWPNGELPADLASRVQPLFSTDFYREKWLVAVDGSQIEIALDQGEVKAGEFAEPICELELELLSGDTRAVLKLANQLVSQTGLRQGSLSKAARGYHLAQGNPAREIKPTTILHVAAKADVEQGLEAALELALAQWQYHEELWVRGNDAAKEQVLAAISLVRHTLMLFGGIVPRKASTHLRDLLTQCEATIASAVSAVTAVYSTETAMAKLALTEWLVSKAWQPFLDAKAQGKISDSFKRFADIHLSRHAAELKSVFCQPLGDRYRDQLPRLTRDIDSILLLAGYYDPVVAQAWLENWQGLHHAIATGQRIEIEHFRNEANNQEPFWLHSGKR

T1 sequence (P47075 189-480 limits assumed): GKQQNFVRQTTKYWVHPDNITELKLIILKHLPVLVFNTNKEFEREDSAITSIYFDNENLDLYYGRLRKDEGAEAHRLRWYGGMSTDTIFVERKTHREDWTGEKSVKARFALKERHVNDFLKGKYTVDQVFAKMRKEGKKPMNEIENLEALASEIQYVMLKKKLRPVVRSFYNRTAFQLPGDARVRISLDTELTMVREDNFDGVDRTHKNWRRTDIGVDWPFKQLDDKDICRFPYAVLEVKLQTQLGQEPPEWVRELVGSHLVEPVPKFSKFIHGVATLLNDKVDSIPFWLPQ

For `Nc1ncnc2c1ncn2[C@@H]1O[C@H](COP(=O)(O)OP(=O)(O)OP(=O)(O)O)[C@@H](O)[C@H]1O` [ATP], the “polyP synthesis, urea PAGE with DAPI stain” value (Vtc4p) was “only Vtc4p can generate inorganic polyphosphate from ATP”.
In the case of `Cc1ncc(C[n+]2csc(CCOP(=O)(O)OP(=O)(O)O)c2C)c(N)n1` [ThDP], the “X-ray crystal structure of product complex (soak)” value (mouse ThTPase [1]; tunnel active site, Pi also bound) was “with a ThDP molecule and an orthophosphate located in the tunnel center”.
`O=P(O)(O)O` [orthophosphate] was tested, and the “X-ray crystal structure of product complex (soak)” value (mouse ThTPase [1]; bound by Arg-125 near metal site 2, with ThDP) was “with a ThDP molecule and an orthophosphate located in the tunnel center”.
With `Cc1ncc(C[n+]2csc(CCOP(=O)(O)OP(=O)(O)OP(=O)(O)O)c2C)c(N)n1` [thiamine triphosphate] the “X-ray crystal structure of complex (soak)” value (mouse ThTPase [2]) was “we found an intact ThTP molecule bound in the tunnel center of ThTPase”.
In the case of `O=P(O)(O)OP(=O)(O)OP(=O)(O)O` [tripolyphosphate], the “X-ray crystal structure of complex (soak)” value (ygiF) was “solved structures of ygiF in complex with PPPi and in the presence of either MgCl2”.
